Data on four compounds can be found in patent EP0799174B1, “BIOCIDAL ALCOHOLS, THEIR PRODUCTION AND THEIR USE” (SCHÜLKE & MAYR GMBH, priority 1994, dated 1996).

Molecules are shown by their SMILES.

Holding throughout (format): cell-based
Assay [1] concerns Aspergillus niger ATCC 6275. As to the kind of experiment: MIC values, water-soluble (inhibition titre, dilution series in CSL).
Assay [2] concerns Candida albicans ATCC 10231. The assay is described as above. On the procedure:
(§1) Standard formulation: • Rewopal MPG 40 25.0 g • aromatic alcohol 10 mmol • dem.* water to 100 g • lactic acid for adjusting the pH value to 7.0 q.s.
(§2) In sterile test tubes, 5 ml each of the dilutions of the disinfectant in WSH (water of standardized hardness) are mixed with 5 ml double-concentrated casein peptone soybean flour peptone solution (CSL) or CSL and deactivating substances.
(§3) To determine the bacteriostatic action on Staphylococcus aureus and Proteus mirabilis the tubes are inoculated by adding 0.1 ml of a CSL culture diluted 1:10 with CSL and incubated for 24 h at 37°C.
(§4) To test the fungistatic action, 0.1 ml of an undiluted CSL culture of Candida albicans which has been incubated at 37°C for 72 h is used in each case. Evaluation takes place after 72 h at 37°C.
(§5) The highest dilution of the preparation in CSL or CSL and deactivating substances that still suppresses growth of the test germs after […] incubation serves as the measure of the multiplication-inhibiting action (inhibition titre).
(§6) In the case of the disinhibition tests, the culture media are to be adjusted to a pH value of 7.0 ± 0.2 according to the state of the disinfectant.
(§7) Standard formulation: • aromatic alcohol 5.0 % • Brij 58 5.0 % • 1,3-butanediol to 100 • Test germs: see above • Test method: see above

The test system of assay [3] is Staphylococcus aureus ATCC 6538. Described as above. On the procedure: as §1, §2, §3, §4, §5, §6, §7
The test system of assay [4] is Mycobacterium terrae ATCC 15755. Briefly: Germ carrier experiment with standard cotton. Also on record: key: E: individual colonies; M: several colonies; +: weak growth; ++: moderate growth; +++: heavy growth; ++++: very heavy growth; ∞: lawn growth. The settings on record: Rewopal MPG 40 25.0%, aromatic alcohol 2.0 %, dem. water to 100. On the procedure: • Rewopal MPG 40 25.0% • aromatic alcohol 2.0 % • dem. water to 100
The bacteria are elutriated with 5 ml CSL from a 24 h-old (37°C) culture onto CSA plates measuring approx. 9 cm in diameter, the suspension being diluted with CSL if necessary. The number of CFU/ml is to be determined using surface culture. It should be > 10^9/ml.
The sterilized and dried germ carriers are introduced into the bacterial suspension and left in it for 15 minutes, during which they are turned over twice.
A number (4) of contaminated, thoroughly impregnated germ carriers, corresponding to the proposed removal times - 15, 30, 60 and 120 minutes - is placed in a small dish and 10 ml of the disinfectant solution to be tested in WSH are poured over them. Air bubbles are to be removed by repeated turning of the germ carriers.
After the corresponding action times, the germ carriers are to be removed from the disinfectant solution, and after rinsing twice in each case for 1 min in 10 ml ML solution (see Appendix) to which the deactivating substances were optionally added, the germ carriers are placed onto the surface of a Löwenstein-Jensen nutrient medium with tweezers and moved backwards and forwards 3 to 4 times using light pressure. After inoculating the nutrient medium surface the small cloth is to remain lying directly above the condensed water level of the nutrient medium.
Germ carriers pre-treated in the same way, but kept in WSH for 120 minutes instead of in disinfectant solution are to be inoculated as a control. The inoculated tubes are incubated at 37°C for 3 weeks.

The subject of assay [5] is Proteus vulgaris NCTC 4635. As to the kind of experiment: MIC values, water-soluble (inhibition titre, dilution series in CSL).
Assay [6] has as its system Penicillium funiculosum ATCC 36839. Described as above.
The next assay deals with P. vulgaris. The source says: (§8) Standard formulation: • aromatic alcohol 1 part • dimethylformamide 6 parts [table] The diameters of the inhibition zones are given in mm.
For assay [7], the system named is Candida albicans ATCC 10231. Briefly: MIC values, water-insoluble (covered area of plates, solutions in acetone). The settings on record: solution in acetone, 100% means no inhibiting action. The text has this: (§9) [table] The size of the covered areas of the plates is given in %; 100% means no inhibiting action.
Assay [8] relates to Aspergillus niger ATCC 6275. The description is as above. The settings on record: solution in acetone, 100% means no inhibiting action.
Description: as §9

Assay [9] has as its system Escherichia coli ATCC 11229. The description is as above. The settings on record: solution in acetone, 100% means no inhibiting action.
Description: as §9

The test system of assay [10] is Staphylococcus aureus ATCC 6538. Described as above. To be noted: solution in acetone, 100% means no inhibiting action.
Description: as §9

Assay [11] concerns Pseudomonas aeruginosa ATCC 15442. As to the kind of experiment: Plate diffusion test (agar diffusion test). The settings on record: aromatic alcohol 1 part, dimethylformamide 6 parts.
Description: as §8

The test system of assay [12] is Candida albicans ATCC 10231. As to the kind of experiment: Plate diffusion test (agar diffusion test). The settings on record: aromatic alcohol 1 part, dimethylformamide 6 parts.
Description: as §8

Assay [13] has as its system Escherichia coli ATCC 11229. Briefly: Plate diffusion test (agar diffusion test). To be noted: aromatic alcohol 1 part, dimethylformamide 6 parts.
Description: as §8

For assay [14], the system named is Staphylococcus aureus ATCC 6538. Briefly: Plate diffusion test (agar diffusion test). The settings on record: aromatic alcohol 1 part, dimethylformamide 6 parts.
Description: as §8

Setting [15] is: standard formulation: Rewopal MPG 40 25.0 g, aromatic alcohol 10 mmol, dem. water to 100 g, pH 7.0.
Where [16] appears, read: standard formulation: aromatic alcohol 5.0 %, Brij 58 5.0 %, 1,3-butanediol to 100.

For `Cc1cccc(CC(C)(C)CO)c1` [Alcohol 3, 2,2-dimethyl-3-(3-methylphenyl) propanol], the “MIC (minimum inhibiting concentration) A. niger” value amounted to 156 μmol/100 ml test solution in assay [1] (setting [15]) and 625 µmol/100 ml test solution in [1] (setting [16]). In addition, the entries for the “MIC (minimum inhibiting concentration) C. albicans” value in assay [2] (setting [15]) and in assay [2] (setting [16]) were 625 μmol/100 ml test solution and 625 µmol/100 ml test solution, respectively. The “MIC (minimum inhibiting concentration) S. aureus” value in assay [3] (setting [15]) is 2,500 μmol/100 ml test solution; in assay [3] (setting [16]) it was 625 µmol/100 ml test solution. Besides, the “growth of M. terrae after action time 15'” value in assay [4] (15') is “+++”. Moreover, in assay [4] (30'), the “growth of M. terrae after action time 30'” value was “+”. Besides, the “growth of M. terrae after action time 60'” value in assay [4] (60') is reported as “+”. Besides, the “growth of M. terrae after action time 120'” value in assay [4] (120') is recorded as “E”. Further, the “MIC (minimum inhibiting concentration) P. vulgaris” value is recorded as 2,500 μmol/100 ml test solution in assay [5] (setting [15]) and 625 µmol/100 ml test solution in assay [5] (setting [16]). Further, the “MIC (minimum inhibiting concentration) P. funi.” value amounted to 156 μmol/100 ml test solution in assay [6] (setting [15]) and 313 µmol/100 ml test solution in assay [6] (setting [16]).
Take `CCC(CO)Cc1cccc(OC)c1` (stereo not drawn) [Alcohol 15]: the “diameters of the inhibition zones, P. vulgaris” value with P. vulgaris was 18 mm. For the same compound, the “size of the covered areas of the plates, C. albicans” value (“size … C. albicans” below) in assay [7] (concentration 0.50 % by wt.) and in assay [7] (concentration 1.00 % by wt.) was 100% each time. For the same compound, the “size of the covered areas of the plates, A. niger” value (from here on “size … A. niger”) was found to be 100% in assay [8] (concentration 0.50 % by wt.) and 90% in assay [8] (concentration 1.00 % by wt.). Further, the “size of the covered areas of the plates, E. coli” value (“size … E. coli” below) in [9] (concentration 0.50 % by wt.) and in assay [9] (concentration 1.00 % by wt.) was 100% each time. The “size of the covered areas of the plates, S. aureus” value (from here on “size … S. aureus”) in [10] (concentration 0.50 % by wt.) and in [10] (concentration 1.00 % by wt.) was 100% in each case. The “diameters of the inhibition zones, P. aeruginosa” value in [11] is 15 mm. Moreover, the “diameters of the inhibition zones, C. albicans” value in [12] is 23 mm. In addition, the “diameters of the inhibition zones, E. coli” value in [13] came to 18 mm. For the same compound, in assay [14], the “diameters of the inhibition zones, S. aureus” value was found to be 18 mm.
In the case of `C=CCC(CO)Cc1ccccc1` (stereo not drawn) [Alcohol 17], the “diameters of the inhibition zones, P. vulgaris” value with P. vulgaris is listed as 13 mm. Besides, the “size … C. albicans” value in assay [7] (concentration 0.50 % by wt.) and in assay [7] (concentration 1.00 % by wt.) was 100% in each case. In addition, the results for the “size … A. niger” value in assay [8] (concentration 0.50 % by wt.) and in assay [8] (concentration 1.00 % by wt.) were 100% and 80%, respectively. The entries for the “size … E. coli” value in [9] (concentration 0.50 % by wt.) and in assay [9] (concentration 1.00 % by wt.) were 100% and 90%, respectively. The “size … S. aureus” value in assay [10] (concentration 0.50 % by wt.) and in [10] (concentration 1.00 % by wt.) was 100% in each case. Besides, the “diameters of the inhibition zones, P. aeruginosa” value in [11] was determined as 12 mm. The “diameters of the inhibition zones, C. albicans” value in [12] is reported as 17 mm. For the same compound, the “diameters of the inhibition zones, E. coli” value in [13] stood at 13 mm. The “diameters of the inhibition zones, S. aureus” value in assay [14] is 16 mm.
With `CCCCCC(CO)Cc1ccccc1` (stereo not drawn) [Alcohol 18], the “diameters of the inhibition zones, P. vulgaris” value in the assay on P. vulgaris was 0 mm. The entries for the “size … C. albicans” value in assay [7] (concentration 0.25 % by wt.), in [7] (concentration 0.50 % by wt.) and in [7] (concentration 1.00 % by wt.) were 100%, 80% and 70%, respectively. Moreover, the “size … A. niger” value in assay [8] (concentration 0.25 % by wt.) amounted to 100%; in assay [8] (concentration 0.50 % by wt.), 40%; in assay [8] (concentration 1.00 % by wt.) it was 0%. Also, the “size … E. coli” value in assay [9] (concentration 0.25 % by wt.), in [9] (concentration 0.50 % by wt.) and in assay [9] (concentration 1.00 % by wt.) was 100% in each case. Moreover, the entries for the “size … S. aureus” value in assay [10] (concentration 0.25 % by wt.), in assay [10] (concentration 0.50 % by wt.) and in [10] (concentration 1.00 % by wt.) were 100%, 20% and 0%, respectively. In assay [11], the “diameters of the inhibition zones, P. aeruginosa” value came out at 0 mm. Moreover, in assay [12], the “diameters of the inhibition zones, C. albicans” value is given as 11 mm. Moreover, the “diameters of the inhibition zones, E. coli” value in assay [13] is 0 mm. The “diameters of the inhibition zones, S. aureus” value in [14] came out at 11 mm.
